Results from PubChem BioAssay (NCI).
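Cells were grown in 96-well plates and exposed to each compound for 48 hours at five concentrations; endpoints were interpolated linearly between bracketing concentrations, or set to the highest concentration if not reached. TGI: concentration producing complete growth inhibition.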

Experiments:
Assay in all cases: NCI-60 cell line screen, 48 h
SK-MEL-2 melanoma = test system: SK-MEL-2 melanoma
NCI-H23 lung = test system: NCI-H23 lung
SW-620 colon = test system: SW-620 colon
NCI/ADR-RES ovarian = test system: NCI/ADR-RES ovarian
TK-10 renal = test system: TK-10 renal
COLO 205 colon = test system: COLO 205 colon
SF-268 CNS = test system: SF-268 CNS
EKVX NSCLC = test system: EKVX NSCLC
MOLT-4 leukemia = test system: MOLT-4 leukemia
NCI-H226 lung = test system: NCI-H226 lung

SMILES | TGI (SK-MEL-2 melanoma) | TGI (NCI-H23 lung) | TGI (SW-620 colon) | TGI (NCI/ADR-RES ovarian) | TGI (TK-10 renal) | TGI (COLO 205 colon) | TGI (SF-268 CNS) | TGI (EKVX NSCLC) | TGI (MOLT-4 leukemia) | TGI (NCI-H226 lung)
N#Cc1ccccc1C#C/C=C\C#Cc1ccccn1 | 33.3 µM | 25.5 µM | 31.9 µM | 34.3 µM | 96.2 µM | 73.5 µM | 48.4 µM | 57.7 µM |  | 
O=[N+]([O-])c1cc(-c2ccc([As](=O)(O)O)cc2)ccc1[As](=O)(O)O | > 100 µM | > 100 µM | > 100 µM | > 100 µM | > 100 µM |  | > 100 µM | > 100 µM | > 100 µM | > 100 µM
CCOC1=C2N=C(C(CC)c3ccc(F)cc3)N=C2C(=O)c2ccccc21 (stereo not given) | 39.5 µM | 70.2 µM | > 100 µM |  | 66.7 µM | 47 µM | 99.4 µM | > 79.7 µM | > 86.2 µM | 41.6 µM
CCN1CC2(CO)CCC(OC)C34C5CC6C(OC)CC(O)(C5C6OC)C(O)(C(OC)C23)C14 (stereo not given) | > 63.9 µM | > 375 µM | > 375 µM | > 375 µM |  | > 375 µM | > 375 µM | > 65 µM | > 375 µM | > 375 µM
Nc1nc2c(nnn2C2C=C(CO)C(O)C2O)c(=O)[nH]1 (stereo not given) | > 100 µM | > 100 µM | > 100 µM |  | > 100 µM | > 100 µM | > 100 µM | > 100 µM | > 100 µM | > 100 µM
CC(C)c1cccc(C(C)C)c1NC(=O)/C(Cc1nc2ccc(Cl)cc2[nH]c1=O)=N\NC(=O)C[N+](C)(C)C | > 100 µM | > 100 µM | > 100 µM |  | > 100 µM | > 100 µM | > 100 µM | > 100 µM | > 100 µM | 
O=C(C#Cc1ccccc1)Nc1ccccc1CC(c1c[nH]c2ccccc12)c1c[nH]c2ccccc12 | 51.9 µM | 37.1 µM | 27.4 µM |  | 96.6 µM | 44.2 µM | > 100 µM | 86.1 µM | 34.2 µM | 35.2 µM
C=C1C(=O)OC2C=C(C)CC3C=C(CCC=C(C)CCC12)C(=O)O3 (stereo not given) | 101 µM | 117 µM | 107 µM | 114 µM |  | 115 µM | 145 µM | 118 µM | 159 µM | 174 µM
O=C1/C(=C/Cc2ccco2)N=C(c2ccccc2)N1c1nc2ccc(Sc3ccccc3)cc2[nH]1 | 34.8 µM |  | > 100 µM | 72.4 µM | > 100 µM | 36 µM | 58.1 µM | > 100 µM | 92.9 µM | 
CSCCC(NOC(=O)Cc1ccccc1)P(=O)(O)c1ccccc1 (stereo not given) | > 100 µM | > 100 µM | > 100 µM | > 100 µM | > 100 µM | > 100 µM |  |  | > 100 µM | > 100 µM
O=C1C2=C(c3ccccc31)C(c1ccc([N+](=O)[O-])cc1)NC(=S)N2 (stereo not given) | > 100 µM | > 100 µM | > 100 µM |  | > 100 µM | > 100 µM | > 100 µM | > 100 µM | > 100 µM | > 100 µM
Cc1cc2nc3c(C)c4ccccc4c(C)n3c2cc1C | > 10 µM | > 10 µM | > 10 µM | 8.41 µM | > 10 µM | > 10 µM | > 10 µM | > 10 µM | > 10 µM | 
CC(C)C(N=C1CC2CCC1(C(=O)Nc1ccccc1O)C2(C)C)c1ccccc1 (stereo not given) | > 10 µM | > 10 µM | > 10 µM |  | > 10 µM | > 10 µM | > 10 µM | > 10 µM | > 10 µM | > 10 µM
Clc1cccc(C=NC23CC4CC(CC(C4)C2)C3)c1Cl | > 10 µM | > 10 µM | > 10 µM | > 10 µM | > 10 µM | > 10 µM | > 10 µM | > 10 µM |  | > 10 µM
Nc1nc(Cl)cc(OCC2(CO)CCCCC2)n1 |  | > 100 µM | > 100 µM | > 100 µM | > 100 µM |  | > 100 µM | > 100 µM | > 100 µM | > 100 µM
Cc1[nH]c(-c2ccccc2)c(O)c1C(=O)OC1CC(C)CCC1C(C)C (stereo not given) | 28.2 µM | 26.6 µM | 29.2 µM | 28.2 µM |  | 27.9 µM | 29.4 µM | 23.9 µM | 28.1 µM | 30.9 µM
O=C(Cn1cc(I)c(C(=O)NCC(O)CO)n1)NCC(O)CO (stereo not given) | > 100 µM | > 100 µM | > 100 µM |  | > 100 µM | > 100 µM | > 100 µM | > 100 µM | > 100 µM | > 100 µM
O=c1oc2c(Cl)cc(Cl)cc2cc1-c1cn2c(n1)sc1ccccc12 | > 100 µM | > 100 µM | 92.4 µM | > 100 µM | > 100 µM | > 100 µM | > 100 µM | > 100 µM | 52 µM | 
COc1ccc(/C=N/NC(=O)NCCNCCO)cc1 | > 100 µM | > 100 µM | > 100 µM |  | > 100 µM | > 100 µM | > 100 µM |  | > 100 µM | > 100 µM
CCOC(=O)/C(C(N)=O)=C(/O)c1cnccn1 | > 100 µM | > 100 µM | > 100 µM | > 100 µM |  | > 100 µM | > 100 µM | > 100 µM | > 100 µM | > 100 µM
CC(=O)Nc1ccc(S(=O)(=O)Nc2cnc3ccccc3n2)cc1 | > 100 µM | > 100 µM | > 100 µM |  | > 100 µM | > 100 µM | > 100 µM | > 100 µM | > 100 µM | > 100 µM
C#CCN(Cc1ccc2nc(-c3ccccc3)c(Cl)nc2c1)c1ccc(Cl)c(Cl)c1 | > 100 µM | > 100 µM | > 100 µM |  | > 100 µM | > 100 µM | > 100 µM | > 100 µM | > 100 µM | 
Nc1ccc2ncc(NCc3ccc(F)cc3)nc2c1 | > 100 µM | > 100 µM | > 100 µM |  | > 100 µM | > 100 µM | > 100 µM | > 100 µM | > 100 µM | > 100 µM
